Laboratory results published in ChEMBL document CHEMBL5385881, “Design, synthesis, and discovery of Eudistomin Y derivatives as lysosome-targeted antiproliferation agents” (Eur J Med Chem, 2023).

Assays:
A549 = assay: Cytotoxicity against human A549 cells assessed as cell inhibition measured after 72 hrs by MTT assay; format: functional, cell-based; settings: A549, 72 h
LS180 = assay: Cytotoxicity against human LS180 cells assessed as cell inhibition measured after 72 hrs by MTT assay; format: functional, cell-based; settings: LS180, 72 h
MDA-MB-231 = assay: Cytotoxicity against human MDA-MB-231 cells assessed as cell inhibition measured after 72 hrs by MTT assay; format: functional, cell-based; settings: MDA-MB-231, 72 h
SGC-7901 = assay: Cytotoxicity against human SGC-7901 cells assessed as cell inhibition measured after 72 hrs by MTT assay; format: functional, cell-based; settings: SGC-7901, 72 h
[1] = Drug uptake in human MDA-MB-231 cells assessed as accumulation by measuring lysosome-specific fluorescent signals in presence of excess H1 at 1 uM incubated for 1 hrs by confocal laser-scanning microscopic analysis; format: ADME, cell-based; settings: mda-mb-231, 1 h
HepG2 = assay: Cytotoxicity against human HepG2 cells assessed as cell inhibition measured after 72 hrs by MTT assay; format: functional, cell-based; settings: HepG2, 72 h

Compound	IC50 (A549)	IC50 (LS180)	IC50 (MDA-MB-231)	IC50 (SGC-7901)	Drug uptake [1]	IC50 (HepG2)
O=c1[nH]cc(F)c(=O)[nH]1 [FLUOROURACIL]	1.3 µM	3.4 µM	67.5 µM	13.1 µM	–	–
O=C(c1ccccc1)c1nccc2c3ccccc3n(Cc3cccc(F)c3)c12	31.6 µM	20 µM	33.5 µM	28.1 µM	Not Active	28.4 µM
